A word on the IC50: it is the concentration needed to halve the response being measured. The Ki is the dissociation constant of the complex between target and ligand, obtained from inhibition or displacement.

The source of these data is article PMC9914411, “Potent Xanthine Oxidase Inhibitory Activity of Constituents of Agastache rugosa (Fisch. and C.A.Mey.) Kuntze” (Foods, 2023).

Structures are written as SMILES. Like-named read-outs stand apart in the source and are kept apart here. A value given as a limit tells only on which side of the number the result lay.

Experiment [1] concerns the target T1, bovine milk XO (Bos taurus, UniProt P80457).
T1 construct: The bovine milk XO activity was assayed; from tissue; host or cells: bovine milk
As to the kind of experiment: XO inhibitory activity assay (uric acid formation from xanthine, absorbance at 295 nm). The experiment is classed as biochemical. The settings on record: for inhibition at 5 µM: read-out: XO inhibitory activity (%); for inhibition at 25 µM: read-out: Xanthine Oxidase Inhibition %. As for the experimental part:
The bovine milk XO activity was assayed following the previously published procedures. […] First, 125 µL of 100 mM sodium pyrophosphate buffer (HCl, pH 7.5), 30 µL of 0.1 units XO enzyme, 5 µL of test samples, and 40 µL of the substrate (0.5 mM xanthine) were mixed. […] The inhibition mechanism and constants (Km, Vmax, and Ki) of a binding site for the inhibitor to a free enzyme (KI) or an enzyme–substrate complex (KIS) were determined using the Lineweaver–Burk and Dixon plots.
The ARE was prepared using five different polar solvents (EtOH, 70% EtOH, 50% EtOH, 30% EtOH, and H2O) and tested for their XO inhibitory activity.

The target in experiment [2] is T1, bovine milk XO. The experiment is described as follows: XO kinetic assay (Lineweaver–Burk and Dixon plots, reversibility, preincubation). The experiment is classed as biochemical. The settings on record: for Xanthine Oxidase Kinetic Mode: Lineweaver–Burk and Dixon plots. As for the experimental part:
The bovine milk XO activity was assayed following the previously published procedures. […] First, 125 µL of 100 mM sodium pyrophosphate buffer (HCl, pH 7.5), 30 µL of 0.1 units XO enzyme, 5 µL of test samples, and 40 µL of the substrate (0.5 mM xanthine) were mixed. The reaction mixture (200 µL) in a 300 µL well plate was incubated at 37 °C and the UV absorbance at 295 nm was screened every 1 min for 15 min. The inhibition mechanism and constants (Km, Vmax, and Ki) of a binding site for the inhibitor to a free enzyme (KI) or an enzyme–substrate complex (KIS) were determined using the Lineweaver–Burk and Dixon plots. 1/V = Km/Vmax (1 + [I]/KI) 1/S + 1/Vmax(1) Slope = Km/KI Vmax [I] + Km/Vmax (2) Intercept = 1/KIS Vmax [I] + 1/Vmax (3) […]
The kinetic behaviors of the oxidation of xanthine catalyzed by XO at different concentrations of inhibitor were analyzed using both Lineweaver–Burk (Figure 3A) and Dixon plots (Figure 3B). […] The two possible inhibition mechanisms were investigated to reveal which one gives this kinetic profile. The mechanisms of mixed inhibition can be investigated through the changes of the substrate with inhibitor followed by measurements of the residual enzyme–substrate complex. Parameters of free enzyme (KI) and the enzyme–substrate complex (KIS) can be fitted to Equations (2) and (3). […] Further analysis of the progress of the inhibition was undertaken by preincubating the enzyme with 7, prior to the addition of the substrate.

[3] abbreviates: isolated compounds and positive controls, read-out: Xanthine Oxidase IC50.
Where [4] appears, read: sample concentration 25 µM for the compound.

T1 sequence (P80457 whole entry): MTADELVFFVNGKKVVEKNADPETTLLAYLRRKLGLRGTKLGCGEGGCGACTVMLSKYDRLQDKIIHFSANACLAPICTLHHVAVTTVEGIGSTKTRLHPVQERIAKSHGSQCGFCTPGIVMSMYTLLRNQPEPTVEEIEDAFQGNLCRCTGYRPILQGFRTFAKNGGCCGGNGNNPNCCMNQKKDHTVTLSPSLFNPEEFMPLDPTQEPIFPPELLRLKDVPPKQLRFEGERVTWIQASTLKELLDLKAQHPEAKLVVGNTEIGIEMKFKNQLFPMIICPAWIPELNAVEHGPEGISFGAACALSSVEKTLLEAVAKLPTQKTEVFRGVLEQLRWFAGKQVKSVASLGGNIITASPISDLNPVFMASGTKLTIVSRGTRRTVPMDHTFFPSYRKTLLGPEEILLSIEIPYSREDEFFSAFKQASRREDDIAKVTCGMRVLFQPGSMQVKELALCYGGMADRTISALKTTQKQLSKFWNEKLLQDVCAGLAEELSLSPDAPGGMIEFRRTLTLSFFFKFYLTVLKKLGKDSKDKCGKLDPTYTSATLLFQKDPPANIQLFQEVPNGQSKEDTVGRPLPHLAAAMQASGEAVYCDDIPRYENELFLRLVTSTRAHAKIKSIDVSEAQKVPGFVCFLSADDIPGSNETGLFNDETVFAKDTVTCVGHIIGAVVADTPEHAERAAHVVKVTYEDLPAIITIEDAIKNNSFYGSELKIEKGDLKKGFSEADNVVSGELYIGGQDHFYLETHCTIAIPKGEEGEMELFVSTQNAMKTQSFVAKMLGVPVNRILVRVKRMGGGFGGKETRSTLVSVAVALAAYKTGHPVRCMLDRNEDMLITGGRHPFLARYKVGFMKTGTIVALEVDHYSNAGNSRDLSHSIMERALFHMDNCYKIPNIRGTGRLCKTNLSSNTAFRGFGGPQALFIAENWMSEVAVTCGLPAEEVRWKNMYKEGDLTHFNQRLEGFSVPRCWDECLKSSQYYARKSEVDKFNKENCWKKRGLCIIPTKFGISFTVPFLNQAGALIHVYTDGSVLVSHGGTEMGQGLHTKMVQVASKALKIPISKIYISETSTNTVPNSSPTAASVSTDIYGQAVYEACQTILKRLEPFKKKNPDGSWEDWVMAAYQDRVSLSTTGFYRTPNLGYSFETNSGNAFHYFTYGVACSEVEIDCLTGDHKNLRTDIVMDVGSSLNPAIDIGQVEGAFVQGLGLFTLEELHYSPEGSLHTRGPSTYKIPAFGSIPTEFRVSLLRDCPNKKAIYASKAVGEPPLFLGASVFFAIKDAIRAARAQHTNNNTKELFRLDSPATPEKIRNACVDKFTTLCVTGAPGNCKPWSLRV

`Oc1ncnc2[nH]ncc12` [Allopurinol, reference compound]: on bovine milk XO [1], the inhibition at 5 µM worked out at 51.9% and the inhibition at 25 µM was determined as 82.5 ± 1.2%. Further, the “Xanthine Oxidase Kinetic Mode” value on bovine milk XO [2] is recorded as “Competitive”.
Consider `COc1ccc(-c2cc(=O)c3c(O)cc(OC4OC(COC(=O)CC(=O)O)C(O)C(O)C4OC(C)=O)cc3o2)cc1` [Compound 6, Acacetin 7-O-(2″-O-acetyl-6″-O-malonyl)-β-D-glucoside], for which the IC50 on bovine milk XO [1] (setting [3]) is above 100 µM. The inhibition at 25 µM on bovine milk XO [1] (setting [4]) turned out to be 26.2 ± 0.9%.
On to `O=c1cc(-c2ccc(O)cc2)oc2cc(O)cc(O)c12` [Apigenin, reference compound], for which the inhibition at 5 µM at bovine milk XO [1] (concentration of 5 μM) turned out to be 67.2%. The 50% inhibitory concentration (IC50) on bovine milk XO [1] (setting [3]) is 0.87 µM. At bovine milk XO [1] (setting [4]), the inhibition at 25 µM worked out at 88.6 ± 1.2%. Also, at bovine milk XO [2], the “Xanthine Oxidase Kinetic Mode” value was “Competitive”.
For `COc1ccc(-c2cc(=O)c3c(O)cc(OC4OC(CO)C(O)C(O)C4OC(C)=O)cc3o2)cc1` [Compound 5, Acacetin 7-O-(2″-O-acetyl)-β-D-glucoside], the half-maximal inhibitory concentration (IC50) on bovine milk XO [1] (setting [3]) turned out to be 74.5 ± 0.9 µM. Further, the inhibition at 25 µM on bovine milk XO [1] (setting [4]) amounted to 40.7 ± 1.5%.
For `COc1ccc(-c2cc(=O)c3c(O)cc(OC4OC(COC(=O)CC(=O)O)C(O)C(O)C4O)cc3o2)cc1` [Compound 4, Acacetin 7-O-(6-O-malonyl)-β-D-glucoside], at bovine milk XO [1] (setting [3]), the half-inhibitory concentration (IC50) worked out at 80.6 ± 0.7 µM. Further, the inhibition at 25 µM on bovine milk XO [1] (setting [4]) is 36.2 ± 1.4%.
For the compound `O=C(/C=C/c1ccc(O)c2c1[C@H](C(=O)O[C@H](Cc1ccc(O)c(O)c1)C(=O)O)[C@@H](c1ccc(O)c(O)c1)O2)O[C@H](Cc1ccc(O)c(O)c1)C(=O)O` [Compound 2, Salvianolic acid B], the 50% inhibitory concentration (IC50) against bovine milk XO [1] is 30.7 ± 0.8 µM. Further, at bovine milk XO [1] (setting [4]), the inhibition at 25 µM turned out to be 46.1 ± 1.2%.
For the compound `COc1ccc(-c2cc(=O)c3c(O)cc(O[C@@H]4O[C@H](CO)[C@@H](O)[C@H](O)[C@H]4O)cc3o2)cc1` [Compound 3, Tilianin], the 50% inhibitory concentration (IC50) at bovine milk XO [1] (setting [3]) was determined as 26.4 ± 0.6 µM. The inhibition at 25 µM on bovine milk XO [1] (setting [4]) was 49.3 ± 1.5%.
For `O=C(/C=C/c1ccc(O)c(O)c1)O[C@H](Cc1ccc(O)c(O)c1)C(=O)O` [Compound 1, Rosmarinic acid], in that order: above 100 µM and 27.2 ± 1.5%.
As for `COc1ccc(-c2cc(=O)c3c(O)cc(O)cc3o2)cc1` [Compound 7, Acacetin], on bovine milk XO [1] (concentration of 5 μM), the inhibition at 5 µM stood at 75.5%. The half-inhibitory concentration (IC50) at bovine milk XO [1] (setting [3]) was determined as 0.58 ± 0.5 µM. For the same compound, the inhibition at 25 µM on bovine milk XO [1] (setting [4]) stood at 94.5 ± 1.4%. The Ki was 0.61 µM at bovine milk XO [2] (Dixon plots, read-out: Xanthine Oxidase Ki) and 0.57 µM on bovine milk XO [2] (secondary plot of slope, Equation (2), read-out: KI (inhibitor binding to free enzyme)). Further, the “Xanthine Oxidase Kinetic Mode” value on bovine milk XO [2] is “mixed type I”. Besides, the “Reversibility of XO inhibition” value at bovine milk XO [2] (activity versus enzyme concentration at 0-1.56 μM inhibitor) is on record as “reversible inhibition”. For the same compound, the “Inhibition as a function of preincubation time” value at bovine milk XO [2] (enzyme preincubated with inhibitor at 0.2 μM) is listed as “time-dependent inhibitory behavior”. The “KIS (inhibitor binding to enzyme–substrate complex)” value at bovine milk XO [2] (secondary plot of intercept, Equation (3)) was found to be 1.14 µM.
